From US20160237044A1, “SUBSTITUTED PHENYLALANINE DERIVATIVES” (BAYER PHARMA AKTIENGESELLSCHAFT, priority 2013, published 2016)
Counter-ions that a name gives are not always drawn.

Key:
human factor XIa = target: T1, human factor XIa (Homo sapiens, UniProt P03951); experiment: Measurement of FXIa inhibition (fluorogenic peptide substrate Boc-Glu(OBzl)-Ala-Arg-AMC); format: biochemical; conditions: factor XIa from Kordia, 15 min preincubation, 30 min at 22° C., fluorescence; read-out: IC50
T1 construct: purchased Kordia
Procedure: a.1) Measurement of FXIa Inhibition
The factor XIa inhibition of the substances according to the invention is determined using a biochemical test system which utilizes the reaction of a peptidic factor XIa substrate to determine the enzymatic activity of human factor XIa. Here, factor XIa cleaves from the peptic factor XIa substrate the C-terminal aminomethylcoumarin (AMC), the fluorescence of which is measured. The determinations are carried out in microtitre plates.
In each case 1 μl of the diluted substance solutions is placed into the wells of white microtitre plates from Greiner (384 wells). […] After 15 min of incubation, the enzyme reaction is started by addition of 20 μl of the factor XIa substrate Boc-Glu(OBzl)-Ala-Arg-AMC dissolved in assay buffer (10 μM in assay buffer) from Bachem, the mixture is incubated at room temperature (22° C.) for 30 min and fluorescence is then measured (excitation: 360 nm, emission: 460 nm). The measured emissions of the test batches with test substance are compared to those of control batches without test substance (only dimethyl sulphoxide instead of test substance in dimethyl sulphoxide), and IC50 values are calculated from the concentration/activity relationships.

plasma = experiment: Determination of anticoagulatory activity: activated partial thromboplastin time (aPTT) in plasma; format: biochemical, human; conditions: concentration of test substance which brings about a 1.5-fold extension of the aPTT, C.K. Prest kit, 37° C.
Procedure: a.4) Determination of Anticoagulatory Activity
The anticoagulatory activity of the test substances is determined in vitro in human and animal plasma (for example mouse, rat, rabbit, pig and dog plasma). To this end, blood is drawn off in a mixing ratio of sodium citrate/blood of 1:9 using a 0.11 molar sodium citrate solution as receiver. Immediately after the blood has been drawn off, it is mixed thoroughly and centrifuged at about 4000 g for 15 minutes. The supernatant is pipetted off.
The activated partial thromboplastin time (aPTT) is determined in the presence of varying concentrations of test substance or the corresponding solvent using a commercial test kit (C.K. Prest from Diagnostica Stago). The test compounds are incubated with the plasma and the PTT reagent (cephalin, kaolin) at 37° C. for 3 minutes. Coagulation is then started by addition of a 25 mM aqueous calcium chloride solution, and the time when coagulation occurs is determined. The concentration of test substance which brings about a 1.5-fold extension of the aPTT is determined.

T1 sequence (P03951 388-625 limits assumed): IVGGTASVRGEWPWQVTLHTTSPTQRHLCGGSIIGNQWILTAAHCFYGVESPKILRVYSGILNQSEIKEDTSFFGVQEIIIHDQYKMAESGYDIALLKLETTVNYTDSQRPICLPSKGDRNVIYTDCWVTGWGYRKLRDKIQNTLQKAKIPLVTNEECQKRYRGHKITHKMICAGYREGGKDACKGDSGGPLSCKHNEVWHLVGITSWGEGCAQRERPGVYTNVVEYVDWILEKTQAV
T1 sequence (P03951 19-387 partner limits assumed): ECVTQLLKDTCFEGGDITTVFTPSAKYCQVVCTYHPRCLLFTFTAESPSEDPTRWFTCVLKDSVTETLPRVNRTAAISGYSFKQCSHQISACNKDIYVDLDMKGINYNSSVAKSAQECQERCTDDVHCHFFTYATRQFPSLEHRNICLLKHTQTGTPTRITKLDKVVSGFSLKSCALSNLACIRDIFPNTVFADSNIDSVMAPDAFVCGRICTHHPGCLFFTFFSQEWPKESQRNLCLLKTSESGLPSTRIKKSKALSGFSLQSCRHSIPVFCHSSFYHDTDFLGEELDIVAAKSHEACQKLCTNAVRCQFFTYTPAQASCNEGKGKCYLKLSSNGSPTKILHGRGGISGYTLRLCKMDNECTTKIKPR

Compound | IC50 (human factor XIa) [nM] | Concentration for 1.5-fold aPTT extension (plasma) [µmol/L]
Cc1cc(C#N)ccc1-c1ccc(C[C@H](NC(=O)[C@H]2CC[C@H](CN)CC2)C(=O)Nc2ccc(-c3nn[nH]n3)cc2)cc1 [Example 23, trans-4-(Aminomethyl)-N-[(2S)-3-(4′-cyano-2′-methylbiphenyl-4-yl)-1-oxo-1-{[4-(2H-tetrazol-5-yl)phenyl]amino}propan-2-yl]cyclohexanecarboxamide hydrochloride] | 1.1 | 0.27
COC(=O)c1ccc(-c2ccc(C[C@H](NC(=O)[C@H]3CC[C@H](CN)CC3)C(=O)Nc3ccc(-c4nn[nH]n4)cc3)cc2)c(Cl)c1.Cl [Example 11, Methyl 4′-[(2S)-2-({[trans-4-(aminomethyl)cyclohexyl]carbonyl}amino)-3-oxo-3-{[4-(2H-tetrazol-5-yl)phenyl]amino}propyl]-2-chlorobiphenyl-4-carboxylate hydrochloride] | 1.9 | 0.49
Cc1cc(S(=O)(=O)N(C)C)ccc1-c1ccc(C[C@H](NC(=O)[C@H]2CC[C@H](CN)CC2)C(=O)Nc2ccc3c(=O)[nH][nH]c3c2)cc1 [Example 13, trans-4-(Aminomethyl)-N-{(2S)-3-[4′-(dimethylsulphamoyl)-2′-methylbiphenyl-4-yl]-1-oxo-1-[(3-oxo-2,3-dihydro-1H-indazol-6-yl)amino]propan-2-yl}cyclohexanecarboxamide hydrochloride] | 3.1 | 0.07
NC[C@H]1CC[C@H](C(=O)N[C@@H](Cc2ccc(-c3ccc(N4CCOCC4=O)cc3)cc2)C(=O)Nc2ccc(-c3nn[nH]n3)cc2)CC1 [Example 25, trans-4-(Aminomethyl)-N-[(2S)-1-oxo-3-[4′-(3-oxomorpholin-4-yl)biphenyl-4-yl]-1-{[4-(2H-tetrazol-5-yl)phenyl]amino}propan-2-yl]cyclohexanecarboxamide hydrochloride] | 2.5 | 0.36
CNS(=O)(=O)c1ccc(-c2ccc(C[C@H](NC(=O)[C@H]3CC[C@H](CN)CC3)C(=O)Nc3ccc4c(=O)[nH][nH]c4c3)cc2)c(C)c1 [Example 18, trans-4-(Aminomethyl)-N-{(2S)-3-[2′-methyl-4′-(methylsulphamoyl)biphenyl-4-yl]-1-oxo-1-[(3-oxo-2,3-dihydro-1H-indazol-6-yl)amino]propan-2-yl}cyclohexanecarboxamide hydrochloride] | 5.4 | 0.13
COc1ccc(-c2ccc(C[C@H](NC(=O)[C@H]3CC[C@H](CN)CC3)C(=O)Nc3ccc(-c4nn[nH]n4)cc3)cc2)c(C(F)(F)F)c1 [Example 27, trans-4-(Aminomethyl)-N-[(2S)-3-[4′-methoxy-2′-(trifluoromethyl)biphenyl-4-yl]-1-oxo-1-{[4-(2H-tetrazol-5-yl)phenyl]amino}propan-2-yl]cyclohexanecarboxamide hydrochloride] | 4.5 | 0.21

Stronger by IC50 (human factor XIa), values ahead:

IC50 (human factor XIa) [nM] | Compound | Concentration for 1.5-fold aPTT extension (plasma) [µmol/L]
1 | NC[C@H]1CC[C@H](C(=O)N[C@@H](Cc2ccc(-c3ccc(S(=O)(=O)NC4CCNCC4)cc3C(F)(F)F)cc2)C(=O)Nc2ccc(-c3nn[nH]n3)cc2)CC1 [Example 8, trans-4-(Aminomethyl)-N-[(2S)-1-oxo-3-[4′-(piperidin-4-ylsulphamoyl)-2′-(trifluoromethyl)biphenyl-4-yl]-1-{[4-(2H-tetrazol-5-yl)phenyl]amino}propan-2-yl]cyclohexanecarboxamide hydrochloride] | 0.08
0.9 | CS(=O)(=O)c1ccc(-c2ccc(C[C@H](NC(=O)[C@H]3CC[C@H](CN)CC3)C(=O)Nc3ccc(-c4nn[nH]n4)cc3)cc2)c(C(F)(F)F)c1 [Example 21, trans-4-(Aminomethyl)-N-[(2S)-3-[4′-(methylsulphonyl)-2′-(trifluoromethyl)biphenyl-4-yl]-1-oxo-1-{[4-(2H-tetrazol-5-yl)phenyl]amino}propan-2-yl]cyclohexanecarboxamide hydrochloride] | 0.23
